This note sets out measurements from patent publication US11166942B2 (PRAXIS BIOTECH LLC, priority 2018, dated 2021).

In assay [1] the test system is Chinese hamster ovary (CHO) cells. Put plainly: Protein translation assay (puromycin labelling, CHO cells). It counts as cell-based. As to conditions: media alone = 100%; for activity at 1 µM: Cricetulus griseus, CHO. How it is done:
Chinese hamster ovary (CHO) cells were maintained at 37° C. and 5% CO2 in Dulbecco's Modified Eagle's Media (DMEM) supplemented with 10% fetal bovine serum, 2 mM L-glutamine, 100 U/ml penicillin, and 100 μg/ml streptomycin. After reaching 80% of confluence, cells were detached and seeded on 6 well plates in complete media, allowed to recover overnight and treated for 2 hours with 1 μM of the test compound (to assess protein synthesis levels in unstressed condition), or for 1 hour with 100 nM or 1 μM of the test compound and then co-treated with 300 nM Tg and 100 nM or 1 μM of the test compound (to assess the recovery of protein synthesis in a stressed condition). Cells treated with Tg alone were used as controls.
After the 2 hours treatments, media were replaced by adding 10 μg/ml puromycin (Sigma Aldrich #P8833) in complete media for 30 min. Media were removed and cells were lysed with SDS-PAGE lysis buffer. Lysates were transferred to 1.5 ml tubes and sonicated for 3 min and total protein amount were quantified using BCA Protein Assay Kit (Pierce). Equal amount of protein (30 μg) was loaded on SDS-PAGE gels. Proteins were transferred onto 0.2 μm PVDF membranes (BioRad) and probed with primary antibodies diluted in Tris-buffered saline supplemented with 0.1% Tween 20 (Merck #S6996184 505) and 3% bovine serum albumin (Rockland #BSA-50).
Puromycin (12D10) (Merck #MABE343) and β-actin (Sigma Aldrich #A5441) antibodies were used as primary antibody. A HRP-conjugated secondary antibody (Rockland) was employed to detect immune-reactive bands using enhanced chemiluminescence (ECL Western Blotting Substrate, Pierce). Quantification of protein bands was done by densitometry using ImageJ software.
Percent increase of protein synthesis in unstressed cells (without Tg treatment) in the presence of media alone or certain test compounds is shown in Table 3 The percentage levels were normalized to the media alone condition, which correspond to 100% protein synthesis.
Percent recovery of protein synthesis in stressed cells (with Tg treatment) due to the test compounds at 100 nM or 1 μM is also shown in Table 3. The levels were normalized to the media alone and to Tg alone conditions, which correspond to 100% and 0% respectively.

For another assay, the system named is ATF4. Put plainly: ATF4 expression inhibition assay (ATF4 5'UTR luciferase reporter, Tg-stressed HEK293T cells). The assay is classed as cell-based, human. The following applies: for inhibition at 0.1 µM: read-out: % ATF4 inhibition at 100 nM; for inhibition at 1 µM: read-out: % ATF4 inhibition at 1 μM; for IC50: read-out: ATF4 inhbition IC50. A digest of the protocol:
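HEK293T stably expressing luciferase fused downstream of human full-length ATF4 5′UTR, stressed with 100 nM thapsigargin plus compound (100 nM or 1 μM; IC50 series 0.1 nM to 1 μM) for 3 h at 37° C. Luminescence normalized to Tg alone (0%) and untreated cells (100% inhibition).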

Where [2] appears, read: 2 h, unstressed CHO cells, 1 μM, 2 hours, read-out: % Protein synthesis in unstressed cells (1 μM test compound).
The mark [3] stands for this setting: CHO cells stressed with 300 nM Tg, 1 μM compound, Tg alone = 0%, read-out: % Recovery of protein expression (1 μM test compound).
Where [4] appears, read: unstressed CHO cells, 1 μM, 2 hours.
Setting [5] is: 100 nM thapsigargin, 3 hours, HEK293T ATF4 luciferase reporter.
Setting [6] is: Homo sapiens, HEK-293T, 3 h, 100 nM test compound, 100 nM thapsigargin, 3 hours, HEK293T ATF4 luciferase reporter.
[7] abbreviates: Homo sapiens, HEK-293T, 3 h, 1 μM test compound, 100 nM thapsigargin, 3 hours, HEK293T ATF4 luciferase reporter.
Where [8] appears, read: 100 nM test compound, 100 nM thapsigargin, 3 hours, HEK293T ATF4 luciferase reporter.
[9] abbreviates: 1 μM test compound, 100 nM thapsigargin, 3 hours, HEK293T ATF4 luciferase reporter.
Setting [10] is: Homo sapiens, HEK-293T, 3 h, 100 nM thapsigargin, 3 hours, HEK293T ATF4 luciferase reporter.

Where two headings read alike, the source gives them in different places. A value given as a limit tells only on which side of the number the result lay.

`O=C(COc1ccc(Cl)c(F)c1)NN1CCN(C(=O)COc2ccc(Cl)c(F)c2)CC1` [Compound 30, 2-(4-chloro-3-fluorophenoxy)-N-(4-(2-(4-chloro-3-fluorophenoxy)acetyl)piperazin-1-yl)acetamide]: in assay [1] (setting [2]), the activity at 1 µM came to 49.3%. In addition, the activity at 1 µM in assay [1] (setting [3]) worked out at 31.7%. Moreover, in the assay with ATF4 (Homo sapiens, HEK-293T, 3 h), the inhibition at 0.1 µM is 29.5%, the inhibition at 1 µM came out at 97.1% and the IC50 is 187 nM.
Regarding `O=C(COc1ccc(Cl)c(F)c1)NC1CCN(NC(=O)C2CNc3cc(Cl)ccc3O2)CC1` (stereo not drawn) [Compound 31, 6-chloro-N-(4-(2-(4-chloro-3-fluorophenoxy)acetamido)piperidin-1-yl)-3,4-dihydro-2H-benzo[b][1,4]oxazine-2-carboxamide], the “% Protein synthesis in unstressed cells (1 μM test compound)” value (“% Protein synthesis in unstressed cells” below) in assay [1] (setting [4]) was 155.4%. Besides, the IC50 in the assay on ATF4 (setting [5]) is 4.16 nM. Moreover, the inhibition at 0.1 µM in the assay with ATF4 (setting [6]) worked out at 94.8%. Further, the inhibition at 1 µM with ATF4 (setting [7]) is 92.7%.
As to `O=C(COc1ccc(Cl)c(F)c1)NN1CCC(NC(=O)C2CNc3cc(Cl)ccc3O2)CC1` (stereo not drawn) [Compound 32], the “% Recovery of protein expression (1 μM test compound)” value in assay [1] (CHO cells stressed with 300 nM Tg, 1 μM compound, Tg alone = 0%) is recorded as 74.8%. Also, the “% Protein synthesis in unstressed cells” value in assay [1] (setting [4]) is given as 115.7%. Also, in the assay on ATF4 (setting [8]), the “% ATF4 inhibition at 100 nM” value stood at 85.7%. Also, the IC50 in the assay on ATF4 (setting [5]) stood at 12 nM. For the same molecule, the “% ATF4 inhibition at 1 μM” value with ATF4 (setting [9]) was 92.4%.
`O=C(NN1CCN(CCCOc2ccc(Cl)c(F)c2)CC1)C1CNc2cc(Cl)ccc2O1` (stereo not drawn) [Compound 44, 6-chloro-N-(4-(3-(4-chloro-3-fluorophenoxy)propyl)piperazin-1-yl)-3,4-dihydro-2H-benzo[b][1,4]oxazine-2-carboxamide]: the activity at 1 µM in assay [1] (setting [2]) amounted to 146%. The activity at 1 µM in assay [1] (setting [3]) is 120%. Moreover, in the assay on ATF4 (Homo sapiens, HEK-293T, 3 h), the inhibition at 0.1 µM is 51.5%, the inhibition at 1 µM came out at 82% and the IC50 is 151 nM.
The corresponding values for `O=C(COc1ccc(Cl)cc1)NC1CCN(NC(=O)COc2ccc(Cl)cc2)CC1` [Compound 45, N,N′-(piperidine-1,4-diyl)bis(2-(4-chlorophenoxy)acetamide)] are 114%, 82.3%, 92.7%, 92.4% and 2.6 nM.
Turning to `O=C(COc1ccc(Cl)c(F)c1)NC1CCN(NC(=O)[C@H]2CNc3cc(Cl)ccc3O2)CC1` [Compound 46, (R)-6-chloro-N-(4-(2-(4-chloro-3-fluorophenoxy)acetamido)piperidin-1-yl)-3,4-dihydro-2H-benzo[b][1,4]oxazine-2-carboxamide], the activity at 1 µM stood at 114% in assay [1] (setting [2]) and 63.3% in assay [1] (setting [3]). Also, in the assay on ATF4 (setting [6]), the inhibition at 0.1 µM is 100%. The IC50 with ATF4 (setting [10]) amounted to 3.6 nM. The inhibition at 1 µM with ATF4 (setting [7]) was found to be 99.3%.
Consider `O=C(COc1ccc(Cl)c(F)c1)NC1CCN(NC(=O)[C@@H]2CNc3cc(Cl)ccc3O2)CC1` [Compound 47, (S)-6-chloro-N-(4-(2-(4-chloro-3-fluorophenoxy)acetamido)piperidin-1-yl)-3,4-dihydro-2H-benzo[b][1,4]oxazine-2-carboxamide], for which, in assay [1] (setting [4]), the “% Protein synthesis in unstressed cells” value is 89.4%. Besides, the “% ATF4 inhibition at 100 nM” value in the assay with ATF4 (setting [8]) turned out to be 98.2%. Further, the half-inhibitory concentration (IC50) with ATF4 (setting [5]) was 1.98 nM. Further, the “% ATF4 inhibition at 1 μM” value in the assay on ATF4 (setting [9]) was found to be 99.0%.
`O=C(NN1CCN(C[C@@H](O)COc2ccc(Cl)c(F)c2)CC1)c1cc2cc(Cl)ccc2o1` [Compound 48, (R)-5-chloro-N-(4-(3-(4-chloro-3-fluorophenoxy)-2-hydroxypropyl)piperazin-1-yl)benzofuran-2-carboxamide]: the activity at 1 µM in assay [1] (setting [2]) stood at 85.3%; in assay [1] (setting [3]), 76.2%. In addition, in the assay with ATF4 (setting [6]), the inhibition at 0.1 µM came to 96.5%. In the assay with ATF4 (setting [10]), the IC50 amounted to 3.36 nM. Further, the inhibition at 1 µM in the assay on ATF4 (setting [7]) stood at 97.4%.
For `O=C(NN1CCN(C[C@H](O)COc2ccc(Cl)c(F)c2)CC1)c1cc2cc(Cl)ccc2o1` [Compound 49, (S)-5-chloro-N-(4-(3-(4-chloro-3-fluorophenoxy)-2-hydroxypropyl)piperazin-1-yl)benzofuran-2-carboxamide], in that order: 82.3%, 70.7%, 55.4%, 69.7 nM and 100%.
With `O=C(COc1ccc(Cl)c(F)c1)NN1CCC(NC[C@H](O)COc2ccc(Cl)c(F)c2)CC1` [Compound 53, (S)-2-(4-chloro-3-fluorophenoxy)-N-(4-((3-(4-chloro-3-fluorophenoxy)-2-hydroxypropyl)amino)piperidin-1-yl)acetamide], the activity at 1 µM in assay [1] (setting [2]) is 83.7%; in assay [1] (setting [3]) it was 46.2%. Besides, in the assay on ATF4 (setting [6]), the inhibition at 0.1 µM turned out to be 36.1%. In addition, the IC50 in the assay with ATF4 (setting [10]) was 268 nM. For the same molecule, in the assay on ATF4 (setting [7]), the inhibition at 1 µM amounted to 69.8%.
For the molecule `O=C(NN1CCC(NC[C@@H](O)COc2ccc(Cl)c(F)c2)CC1)c1cc2cc(Cl)ccc2o1` [Compound 54], the activity at 1 µM in assay [1] (setting [2]) worked out at 99.7%. In addition, the activity at 1 µM in assay [1] (setting [3]) worked out at 69.9%. In the assay on ATF4 (Homo sapiens, HEK-293T, 3 h), the inhibition at 0.1 µM was 87.2%, the inhibition at 1 µM came to 97.2% and the IC50 amounted to 1.6 nM.
The corresponding values for `O=C(NN1CCC(NC[C@H](O)COc2ccc(Cl)c(F)c2)CC1)c1cc2cc(Cl)ccc2o1` [Compound 55, (S)-5-chloro-N-(4-((3-(4-chloro-3-fluorophenoxy)-2-hydroxypropyl)amino)piperidin-1-yl)benzofuran-2-carboxamide] are 110%, 49.6%, 58.1%, 80.5% and 102 nM.
In the case of `O=C(NN1CCC(NC[C@@H](O)COc2ccc(Cl)c(F)c2)CC1)c1ccc2cc(Cl)ccc2n1` [Compound 56, (R)-6-chloro-N-(4-((3-(4-chloro-3-fluorophenoxy)-2-hydroxypropyl)amino)piperidin-1-yl)quinoline-2-carboxamide], the activity at 1 µM in assay [1] (setting [2]) was 155%; in assay [1] (setting [3]) it was 46.1%. Besides, in the assay on ATF4 (setting [6]), the inhibition at 0.1 µM is 63.4%. Further, the IC50 with ATF4 (setting [10]) is 71.7 nM. In addition, in the assay with ATF4 (setting [7]), the inhibition at 1 µM is 75.6%.
For `O=C(NN1CCC(NC[C@H](O)COc2ccc(Cl)c(F)c2)CC1)c1ccc2cc(Cl)ccc2n1` [Compound 57, (S)-6-chloro-N-(4-((3-(4-chloro-3-fluorophenoxy)-2-hydroxypropyl)amino)piperidin-1-yl)quinoline-2-carboxamide], the activity at 1 µM turned out to be 139% in assay [1] (setting [2]) and 69.6% in assay [1] (setting [3]). In addition, the inhibition at 0.1 µM with ATF4 (setting [6]) stood at 25.9%. In addition, in the assay with ATF4 (setting [10]), the IC50 is above 10000 nM. Besides, the inhibition at 1 µM in the assay on ATF4 (setting [7]) came to 39.8%.
For `O=C(NN1CCN(C[C@H](O)COc2ccc(Cl)c(F)c2)CC1)c1ccc2cc(Cl)ccc2n1` [Compound 59, (S)-6-chloro-N-(4-(3-(4-chloro-3-fluorophenoxy)-2-hydroxypropyl)piperazin-1-yl)quinoline-2-carboxamide], in that order: 180%, 98.7%, 38.8%, 570 nM and 66%.
In the case of `O=C(NN1CCN(C[C@@H](O)COc2ccc(Cl)c(F)c2)CC1)c1ccc2cc(Cl)ccc2c1` [Compound 60, (R)-6-chloro-N-(4-(3-(4-chloro-3-fluorophenoxy)-2-hydroxypropyl)piperazin-1-yl)-2-naphthamide], the activity at 1 µM in assay [1] (setting [2]) was determined as 140%; in assay [1] (setting [3]), 126%. Besides, the inhibition at 0.1 µM in the assay with ATF4 (setting [6]) turned out to be 92.6%. Further, the IC50 in the assay with ATF4 (setting [10]) is 1.5 nM. Also, the inhibition at 1 µM with ATF4 (setting [7]) was determined as 94.6%.
